Source: US20230172204A1 (BASF SE, priority 2020, published 2023)

Experiments:
[1] = tested on: Phakopsora pachyrhizi (F129L); assay: Protective control of soybean rust on soybeans (PHAKPA P2); assay type: in vivo; details: for PHAKPA (F129L) Disease level (%) P2 at 16 ppm / PHAKPA (F129L) Disease level (%) P2 at 4 ppm: P2 protective, % diseased leaf area; for % PHAKPA (F129L) Disease level P2 at 4 ppm: protective P2, 4 ppm; for % PHAKPA (F129L) Disease level P2 at 4 ppm / % PHAKPA (F129L) Disease level P2 at 16 ppm: soybean rust F129L; for % PHAKPA (F129L) Disease level P2 at 16 ppm: protective P2, 16 ppm
[2] = tested on: Phakopsora pachyrhizi (F129L); assay: Protective control of soybean rust on soybeans (PHAKPA P6); assay type: in vivo; details: for PHAKPA (F129L) Disease level (%) P6 at 16 ppm / PHAKPA (F129L) Disease level (%) P6 at 4 ppm: P6 protective, % diseased leaf area; for % PHAKPA (F129L) Disease level P6 at 4 ppm: protective P6, 4 ppm; for % PHAKPA (F129L) Disease level P6 at 4 ppm / % PHAKPA (F129L) Disease level P6 at 16 ppm: soybean rust F129L; for % PHAKPA (F129L) Disease level P6 at 16 ppm: protective P6, 16 ppm

Structure (SMILES)	PHAKPA (F129L) Disease level (%) P2 at 16 ppm [1]	% PHAKPA (F129L) Disease level P2 at 4 ppm [1]	% PHAKPA (F129L) Disease level P2 at 16 ppm [1]	PHAKPA (F129L) Disease level (%) P6 at 16 ppm [2]	% PHAKPA (F129L) Disease level P6 at 4 ppm [2]	% PHAKPA (F129L) Disease level P6 at 16 ppm [2]	PHAKPA (F129L) Disease level (%) P2 at 4 ppm [1]	PHAKPA (F129L) Disease level (%) P6 at 4 ppm [2]
CO/N=C(/C(=O)OC)c1cccc(C)c1CO/N=C(\C)c1cccc(Br)c1 [Ex. 56]	32%	43%	24%	15%	67%	19%		
CNC(=O)/C(=N/OC)c1cccc(C)c1CO/N=C(/c1ccccc1)C(F)F [Ex. 73]		0%			19%		1%	37%
CO/N=C(/C(=O)OC)c1cccc(C2CC2)c1CO/N=C(\C)c1cccc(C(F)(F)F)c1 [Ex. 10]		22%	2%		45%	3%		
CNC(=O)/C(=N/OC)c1cccc(C)c1CO/N=C(\C)c1cc(Cl)ccc1Cl [Ex. 130]		20%	1%		40%	1%	33%	67%
CNC(=O)/C(=N/OC)c1cccc(C)c1CO/N=C(\C)c1ccccc1F [Ex. 2, (2E)-2-[2-[[(E)-1-(2-fluorophenyl)ethylideneamino]oxymethyl]-3-methyl-phenyl]-2-methoxyimino-N-methyl-acetamide]		5%	0%		26%	1%		
CO/N=C(/C(=O)OC)c1cccc(C)c1CO/N=C(/c1cccc(C(F)(F)F)c1)C(C)C [compound 206]		100%	67%		100%	90%		
CO/N=C(/C(=O)OC)c1cccc(C)c1CO/N=C(\C)c1ccc(Cl)c(C(F)(F)F)c1 [compound 59]		67%	20%		63%	11%		
CO/N=C(/C(=O)OC)c1cccc(C)c1CO/N=C(\C)c1ccc(F)c(F)c1OC(F)(F)F [compound 447]		7%	0%		33%	1%		
CNC(=O)/C(=N/OC)c1cccc(C)c1CO/N=C(\C)c1ccc(OC)cc1OC(F)(F)F [compound 337]		9%	0%		13%	1%		
CNC(=O)/C(=N/OC)c1cccc(C)c1CO/N=C(\C)c1ccc(C(C)=O)cc1 [compound 179]		100%	47%		90%	28%		
CNC(=O)/C(=N/OC)c1ccccc1CO/N=C(\C)c1cccc(N2CC(F)(F)C2)c1 [reference compound]	70%			53%				
CNC(=O)/C(=N/OC)c1cccc(C)c1CO/N=C(\C)c1ccccc1Cl [compound 128]		32%	2%		77%	2%		
CNC(=O)/C(=N/OC)c1cccc(C)c1CO/N=C(\C)c1cccc(N2CC(F)(F)C2)c1 [Ex. 282]	15%		15%	18%		18%		
CNC(=O)/C(=N/OC)c1cccc(C)c1CO/N=C(\SC)c1cccc(Cl)c1 [drawing 979, reference compound]				9%			20%	
CNC(=O)/C(=N/OC)c1cccc(C)c1CO/N=C(\C)c1ccccc1C(C)(F)F [compound 372]		85%	26%		85%	16%		
CO/N=C(/C(=O)OC)c1cccc(C)c1CO/N=C(\C)c1ccc(OC(F)(F)F)cc1C [compound 259]		80%	17%		93%	40%		
CO/N=C(/C(=O)OC)c1cccc(C)c1CO/N=C(\C)c1cccc(-c2noc(C(F)(F)F)n2)c1 [compound 66]		100%	70%		93%	87%		
CO/N=C(/C(=O)OC)c1cccc(C)c1CO/N=C(/c1ccccc1)C(F)F [compound 72]		100%	87%		93%	80%		

Structure (SMILES)	PHAKPA (F129L) Disease level (%) P2 at 16 ppm [1]	% PHAKPA (F129L) Disease level P2 at 4 ppm [1]	% PHAKPA (F129L) Disease level P2 at 16 ppm [1]	PHAKPA (F129L) Disease level (%) P6 at 16 ppm [2]	% PHAKPA (F129L) Disease level P6 at 4 ppm [2]	% PHAKPA (F129L) Disease level P6 at 16 ppm [2]	PHAKPA (F129L) Disease level (%) P2 at 4 ppm [1]	PHAKPA (F129L) Disease level (%) P6 at 4 ppm [2]
CNC(=O)/C(=N/OC)c1cccc(C)c1CO/N=C(\C)c1c(F)ccc(C(F)(F)F)c1F [compound 162]		0%	0%		1%	0%		
CNC(=O)/C(=N/OC)c1cccc(C)c1CO/N=C(\C)c1ccc(Cl)c(C)c1 [compound 107]		1%	0%		15%	1%		
CCC/C(=N\OCc1c(C)cccc1/C(=N\OC)C(=O)OC)c1ccccc1 [compound 387]		60%	30%		80%	47%		
CO/N=C(/C(=O)OC)c1cccc(C)c1CO/N=C(\C)c1cc(Br)ccc1F [compound 138]		47%	2%		35%	1%		
CNC(=O)/C(=N/OC)c1cccc(OC)c1CO/N=C(\C)c1cccc(C(F)(F)F)c1 [compound 461]		26%	2%		52%	6%		
CO/N=C(/C(=O)OC)c1cccc(C)c1CO/N=C(\C)c1cccc(OC(F)(F)F)c1 [Ex. 28]	30%		0%	18%		0%		
CNC(=O)/C(=N/OC)c1cccc(C)c1CO/N=C(\C)c1cc(C(F)(F)F)ccc1Cl [compound 190]		20%	0%		45%	3%		
CO/N=C(/C(=O)OC)c1cccc(C)c1CO/N=C(\C)c1cc(Cl)ccc1C(F)(F)F [compound 251]		80%	80%		80%	80%		
CNC(=O)/C(=N/OC)c1cccc(C)c1CO/N=C(\C)c1ccc(OC(F)(F)F)cc1F [compound 270]		3%	0%		0%	1%		
CNC(=O)/C(=N/OC)c1cccc(C)c1CO/N=C(\C)c1ccc(-c2ccccc2)cc1C(F)(F)F [compound 413]		40%	15%		33%	15%		
CNC(=O)/C(=N/OC)c1cccc(C)c1CO/N=C(\C)c1cc(F)c(F)cc1CC(F)(F)F [compound 406]		97%	30%		67%	23%		
CO/C=C(/C(=O)OC)c1cccc(C)c1CO/N=C(\C)c1ccc(C)cc1C(F)(F)F [compound 446]		2%	0%		6%	0%		
CNC(=O)/C(=N/OC)c1cccc(C)c1CO/N=C(\C)c1cccc(F)c1C(F)(F)F [compound 326]		25%	0%		30%	1%		
CNC(=O)/C(=N/OC)c1ccccc1CO/N=C(\C)c1cccc(C(F)(F)F)c1 [reference compound]							12%	38%
CNC(=O)/C(=N/OC)c1cccc(C)c1CO/N=C(\C)c1ccc(Br)cc1C(F)(F)F [compound 258]		32%	7%		73%	8%		
CO/N=C(/C(=O)OC)c1cccc(C)c1CO/N=C(/c1ccc(Cl)cc1)C(F)F [Ex. 20]		73%	29%		97%	18%		
CNC(=O)/C(=N/OC)c1cccc(C)c1CO/N=C(\C)c1c(Cl)ccc(Cl)c1OC(F)(F)F [compound 441]		100%	43%		97%	50%		
